This is an account of results in patent publication US6924299B2, “Methods and compositions useful in enhancing oxygen delivery to cells” (University of Kentucky Research Foundation, priority 2000, dated 2005).

Assay [1] deals with skin of human volunteers. In words: Visual observation of vasodilation (blushing) after topical application of lotion to forearm. As to conditions: for Vasodilation at 0.1%: 0.1% in skin lotion; for Vasodilation at 0.1% / Vasodilation at 1.0%: anterior forearm, visual blushing; for Vasodilation at 1.0%: 1.0% in skin lotion. In kind it is in vivo. The protocol:
This example details the first of two sets of experiments designed to determine the vasodilation effect of alkyl niacin esters. Formulations were prepared by combining the alkyl esters referred to supra in a skin lotion, at 0.1% and 1.0% concentrations. The lotions were applied topically to the skin of human volunteers on the anterior surface of a forearm. Vasodilation was observed visually, i.e., by observing blushing at the site of application, or lack thereof. Both onset and duration of vasodilation were measured.

The subject of assay [2] is skin of human volunteers. In words: Skin oxygen / CO2 content by transcutaneous monitor after topical application. The assay is classed as in vivo. As for the experimental part: To examine this issue, the oxygen content of skin to which the octyl ester discussed supra was determined directly, using a transcutaneous oxygen monitor. The 1% formulation of the octyl ester was applied to skin for 30 minutes. After this thirty minute period, the skin was cleaned with soap and water, wiped with an alcohol swab, and a drop of deionized water was placed on the sensor surface before its attachment to the anterior surface of the volunteers' forearms. The transcutaneous values were recorded constantly, and stored by the instrument. The monitor measures relative oxygen content, because the temperature at which the monitor operates does impact the oxygen permeability of the stratum corneum. See, e.g., Martin, Resp. […] The sensor was calibrated at 4 hour intervals, or whenever the sensor temperature was changed.
The monitor was operated at a temperature of 40° C. Values are given for both a control, and the formulation described herein.
In a follow-up experiment, the monitor was operated at 38° C., and both O2 and CO2 were measured, with a combined transcutaneous oxygen and CO2 monitor. […] The control is represented by the dotted line.
Parallel experiments were carried out using 0.1% octyl niacin ester lotion, and a lotion containing octyl niacin ester (0.1%), and 0.1% butyl benzoate.
Oxygen content was measured in the same way as is described, supra, or using other techniques known to the art.

Where [3] appears, read: monitor at 38° C., versus control, FIG. 3.

In the case of `CCOC(=O)c1cccnc1` [2 carbons, Ethyl niacin], in the assay with skin of human volunteers [1], the “Vasodilation at 0.1%” value was “Yes” and the “Vasodilation at 1.0%” value was “Yes”. In addition, in the assay on skin of human volunteers [1] (0.1% lotion, visual determination), the “Vasodilation Effect at 0.1%: Onset” value was in the range of 5 to 10 min.
With `CCCCCCCCCCCCCCCCCCOC(=O)c1cccnc1` [18 carbons], in the assay with skin of human volunteers [1], the “Vasodilation at 0.1%” value is on record as “No” and the “Vasodilation at 1.0%” value is “No”.
In the case of `CCCCCCCCCCCOC(=O)c1cccnc1` [11 carbons], in the assay on skin of human volunteers [1], the “Vasodilation at 0.1%” value is listed as “No” and the “Vasodilation at 1.0%” value is given as “Slight”.
On to `CCCCCCCCCCCCCCCCOC(=O)c1cccnc1` [16 carbons], for which, in the assay with skin of human volunteers [1], the “Vasodilation at 0.1%” value is given as “No” and the “Vasodilation at 1.0%” value is “No”.
As to `CCCCCCCCCCOC(=O)c1cccnc1` [10 carbons], in the assay with skin of human volunteers [1], the “Vasodilation at 0.1%” value is “No”. For the same compound, the figures for the “Vasodilation at 1.0%” value with skin of human volunteers [1] and in the assay on skin of human volunteers [1] (listed as C10) were “Yes” and “caused vasodilation”, respectively.
Take `CCCCCCCCOC(=O)c1cccnc1` [8 carbons, Octyl niacin]: in the assay on skin of human volunteers [1], the “Vasodilation at 0.1%” value is listed as “Yes” and the “Vasodilation at 1.0%” value was “Yes”. Also, the “Vasodilation Effect at 0.1%: Duration” value in the assay on skin of human volunteers [1] (0.1% lotion, visual determination, listed as C8) was “longest effect”. In addition, in the assay with skin of human volunteers [2] (1% formulation applied 30 minutes, monitor at 40° C., versus control, FIG. 2), the “Skin oxygen content (transcutaneous oxygen monitor)” value is “sustained increase in skin oxygen”. For the same compound, in the assay with skin of human volunteers [2] (setting [3]), the “Skin CO2 content (combined transcutaneous oxygen and CO2 monitor)” value is on record as “decrease in CO2 content”; the “Skin oxygen content (combined transcutaneous oxygen and CO2 monitor)” value is “sustained increase in skin oxygen content”.
Turning to `CCCCCCCCCOC(=O)c1cccnc1` [9 carbons], in the assay on skin of human volunteers [1], the “Vasodilation at 0.1%” value is recorded as “No”. Also, the “Vasodilation at 1.0%” value was “Yes” with skin of human volunteers [1] and “caused vasodilation” with skin of human volunteers [1] (listed as C9).
Turning to `COC(=O)c1cccnc1` [1 carbon], in the assay on skin of human volunteers [1], the “Vasodilation at 0.1%” value is “Yes” and the “Vasodilation at 1.0%” value is recorded as “Yes”.
As for `CCCCOC(=O)c1ccccc1` [Butyl benzoate, reference compound], the “Effect on the increase in skin oxygen content caused by octyl niacin ester” value in the assay on skin of human volunteers [2] (lotion with 0.1% octyl niacin ester plus 0.1% butyl benzoate versus 0.1% octyl niacin ester lotion alone, FIG. 4) is “blocked the increase in oxygen content”.
Consider `CCCCCCOC(=O)c1cccnc1` [6 carbons, Hexyl niacin], for which, in the assay with skin of human volunteers [1], the “Vasodilation at 0.1%” value is recorded as “Yes” and the “Vasodilation at 1.0%” value is given as “Yes”.
On to `CCCCCCCCCCCCCOC(=O)c1cccnc1` [13 carbons], for which, in the assay with skin of human volunteers [1], the “Vasodilation at 0.1%” value was “No” and the “Vasodilation at 1.0%” value is recorded as “No”.
Regarding `CCCCCCCCCCCCCCOC(=O)c1cccnc1` [14 carbons], in the assay on skin of human volunteers [1], the “Vasodilation at 0.1%” value was “No” and the “Vasodilation at 1.0%” value was “No”.
As to `CCCCCCCCCCCCCCCOC(=O)c1cccnc1` [15 carbons], in the assay with skin of human volunteers [1], the “Vasodilation at 0.1%” value is recorded as “No” and the “Vasodilation at 1.0%” value was “No”.
Consider `CCCCOC(=O)c1cccnc1` [4 carbons], for which, in the assay on skin of human volunteers [1], the “Vasodilation at 0.1%” value is “Yes” and the “Vasodilation at 1.0%” value is given as “Yes”.
For `CCCCCCCCCCCCOC(=O)c1cccnc1` [12 carbons], in the assay on skin of human volunteers [1], the “Vasodilation at 0.1%” value is reported as “No” and the “Vasodilation at 1.0%” value is listed as “No”.
